Target: NfnB (PpNfnB) (Pseudomonas putida, UniProt Q88K59)
Test: nitroreduction, HPLC-ICP-MS
Format: biochemical
Conditions: 4 uM substrate, 1 uM enzyme, 0.2 mM NADPH, 25 uM FMN, pH 7.0, 37 °C

With `O=[N+]([O-])c1ccc([As](=O)(O)O)cc1` [Nit(V), 4-nitrophenylarsonic acid] the “nitroreduction, HPLC-ICP-MS” value was “NfnB also reduces Nit(V) to p-ASA(V)”.
